Source: patent US8048455B2, “Treatment of cancer and inflammatory disorder” (Academia Sinica, priority 2006, dated 2011)
Read-outs that look alike come from different tables or passages of the source.

How the values were obtained:
[1] = tested on: NO production in LPS-activated RAW 264.7 macrophages; assay: LPS-induced NO production in RAW 264.7 macrophages (Griess reaction); format: cell-based, murine; settings: Mus musculus, RAW264.7
Method: RAW 264.7 cells were treated with compound for 1 hour, and then incubated for 24 hours with or without LPS. Nitrite levels in cell culture medium were determined using the Griess reaction (Chiang et al. Br J Pharmacol 2005; 146:352-63; Schmidt et al. Determination of nitrite and nitrate by the Griess reaction. In: Feelisch M, Stamler J S, editors. Methods In Nitric Oxide Research. New York: John Wiley & Sons Inc.; 1996. p. 491-'7). Cell viability was examined using the MTT based assay (Scudiero et al. Cancer Res 1988; 48:4827-33).
RAW 264.7 macrophage cells were treated with or without various concentrations of CREa8 extract for 1 hour, then LPS (1 μg/ml) was added and incubated for 24 hours. […] NO in the culture medium was measured. Percentage of cell viability was also determined using MTT assay. The data represent 3 experiments and are expressed as mean±SD. […]
The inhibition of LPS-induced NO production by C. rabens extracts or purified dLGG was investigated in murine RAW 264.7 macrophages by determination of nitrite level (equivalent to NO level) in culture medium 24 hours after treatment. […] NO in the culture medium was measured using the Griess reagent. Survival of macrophages after treatment was measured using MTT assay and calculated by the following formula: viable cell number (%)=OD570 (treated cell culture)/0D570 (vehicle control)×100. […]

COX-2 enzyme = biological target: T1, COX-2 enzyme (Ovis aries, UniProt P79208); assay: Cyclooxygenase-2 activity assay (chemiluminescent COX inhibitor screening kit); format: biochemical; settings: COX-2 enzyme and substrates
T1 construct: purchased Cayman Chemical
T1 sequence (P79208 17-603): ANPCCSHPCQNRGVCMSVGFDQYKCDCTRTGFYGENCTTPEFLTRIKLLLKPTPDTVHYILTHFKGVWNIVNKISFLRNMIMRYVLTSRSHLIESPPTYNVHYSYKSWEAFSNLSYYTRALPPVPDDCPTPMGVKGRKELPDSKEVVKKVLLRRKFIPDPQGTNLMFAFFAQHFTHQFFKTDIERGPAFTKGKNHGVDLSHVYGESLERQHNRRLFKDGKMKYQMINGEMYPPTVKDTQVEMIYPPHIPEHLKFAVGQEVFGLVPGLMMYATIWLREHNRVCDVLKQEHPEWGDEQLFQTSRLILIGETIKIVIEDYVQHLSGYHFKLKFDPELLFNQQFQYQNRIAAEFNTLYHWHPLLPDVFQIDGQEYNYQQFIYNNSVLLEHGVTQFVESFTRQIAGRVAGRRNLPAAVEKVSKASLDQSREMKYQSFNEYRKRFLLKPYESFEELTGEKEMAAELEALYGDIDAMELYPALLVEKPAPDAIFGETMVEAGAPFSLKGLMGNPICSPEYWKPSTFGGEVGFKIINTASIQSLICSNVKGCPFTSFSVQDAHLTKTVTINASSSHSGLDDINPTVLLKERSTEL
Method: COX-2 inhibition was measured with the chemiluminescent COX inhibitor screening assay kit (Cayman Chemical, Ann Arbor, Mich.).
The above-mentioned test compounds were incubated with COX-2 enzyme and substrates before measuring the COX-2 activity.

NF-κB (p65) = assay: NF-κB p65 nuclear translocation in LPS-stimulated RAW 264.7 cells (immunoblotting, confocal microscopy); format: cell-based, murine
Method: Total cellular proteins and the specific cytosolic and nuclear proteins were prepared using methods described in Chiang et al. Protein content was measured by the Bradford method (Bio-Rad). Protein was resolved by 5-20% gradient SDS-PAGE and subjected to immunoblotting using enhanced chemiluminescence reagents (ECL, Amersham). Monoclonal antibodies against PARP (Transduction Laboratories, Lexington, Ky.), GA3PDH (Biogenesis, Poole, UK), α-tubulin (Oncogene Science, Cambridge, UK), COX-2 (Cayman Chemical), phospho-(Ser32)-IκBα, phospho-IKKα(Ser180)/IKKβ(Ser181) (New England Biolabs, Beverly, Mass.), iNOS, IκBα, IKKα/β or NF-κB p65 (RelA) (Santa Cruz Biotechnology, Santa Cruz, Calif.) were used.
RAW 264.7 cells were seeded in chamber slides for 1 hour, and then treated with DMSO or dLGG (75 μg/mL) for 1 hour, with or without LPS stimulation for an additional 90 minutes. The cells were fixed, permeabilized with 0.1% Triton X-100, and stained with Hoechst 33342 (DNA marker), FITC-labeled anti-α-tubulin Ab (cytoplasm marker), or rabbit anti-p65 antibody visualized with goat anti-rabbit Rhodamine Red-labeled secondary antibody for analysis with a Zeiss LSM 510 META confocal laser-scanning microscope.
The distribution of NF-κB (p65) in nucleus and cytoplasm was determined using immunoblotting. Cells were treated with various concentrations of dLGG for 1 hour and then stimulated with LPS (1 μg/mL) for another 90 min. Nuclear and cytosolic fractions were immunoblotted with p65 NF-κB antibody. A slight increase in nuclear p65 protein (1.5-fold) was detected when macrophages were treated with a low concentration of dLGG (5 μg/mL), compared to LPS alone (1.0). With higher concentrations of dLGG (25 to 75 μg/mL), the level of nuclear p65 decreased accordingly. Cytoplasmic levels of NF-κB (p65) were not affected by dLGG treatment of LPS-stimulated macrophages.
The effect of dLGG on NF-κB (p65) nuclear translocation was also examined by confocal microscopy. Macrophages were treated with 0.4% DMSO, or LPS (1 μg/mL) with or without dLGG (75 μg/mL), and stained with fluorescence-labeled antibodies against p65 (red). To distinguish nucleus from cytosol, cells were also stained with DNA-specific Hoechst 33342 (blue) and with anti-α-tubulin antibody (green). In vehicle-treated cells, p65 protein was mainly found in the cytosol of test cells.

CC/C=C\C/C=C\C/C=C\CCCCCCCC(=O)OC[C@H](CO[C@@H]1O[C@H](CO)[C@H](O)[C@H](O)[C@H]1O)OC(=O)CCCCCCC/C=C\C/C=C\C/C=C\CC [dLGG, 1,2-di-O-α-linolenoyl-3-O-β-galactopyranosyl-sn-glycerol]
IC50 ([1]; RAW 264.7, LPS 1 μg/mL 24 h, read-out: 50% inhibitory concentration for LPS-induced NO production): ~14.7 µM | IC50 ([1]; RAW 264.7, compound 1 h then LPS 1 μg/mL 24 h, read-out: IC50 for inhibiting LPS-induced NO production): ~11.4 µg/mL | IC50 (COX-2 enzyme): 5.35 µM | Nuclear p65 protein compared to LPS alone (1.0) (NF-κB (p65); 5 μg/mL, LPS 90 min): 1.5 fold | p65 nuclear translocation by confocal microscopy (NF-κB (p65); 75 μg/mL, LPS 1 μg/mL): drastically inhibited | Level of nuclear p65 (NF-κB (p65); 25 to 75 μg/mL, LPS 90 min): decreased | Cytoplasmic levels of NF-κB (p65) (NF-κB (p65); LPS-stimulated macrophages): not affected
